Test results as given in patent US10273313B2, “Multimeric mannosides, a process for preparing the same and their uses as a drug” (CENTRE NATIONAL DE LA RECHERCHE SCIENTIFIQUE, priority 2012, dated 2019).
Converted amounts (≈) assume the structure as drawn. Read-outs that look alike come from different tables or passages of the source.

Columns and labels:
[1] = test system: AIEC LF82 bacteria adhesion to T84 intestinal epithelial cells; test: Adhesion assay on T84 cells, pre-, co- and post-incubation protocols (Example 21.2); type: cell-based, Escherichia coli; settings: for Concentration leading to decreased adhesion levels of at least 50%: pre-incubation assay
Description: E. coli strain LF82 was isolated from a chronic ileal lesion of a patient with Crohn's disease (CD). Bacteria were grown routinely in Luria-Bertani (LB) broth overnight at 37° C. Intestinal epithelial cells T84 derived from colonic adenocarcinoma were maintained in an atmosphere containing 5% CO2 at 37° C. in DMEM/F12 (50/50) medium supplemented with 10% (v/v) heat-inactivated fetal calf serum (FCS), 1% L-glutamine, 100 000 U·l^−1 penicillin, 100 mg·l^−1 streptomycin, 25 μg·l^−1 amphotericin B.
T84 were seeded in 48-well plates at a concentration of 1.5×10^5 cells per well and grown for 48 h. AIEC LF82 bacteria were incubated 1 h with each mannoside prior the cell infection (pre-incubation protocol) or they were added simultaneously onto the cells (co-incubation protocol) in complete medium without antibiotics, containing heat inactivated fetal calf serum (FCS). Heptyl-mannose or compound 2 (example 1) were tested at a dose of 100; 10; 1 or 0.1 μM. D-D-mannose was tested at a dose of 10 000; 1 000; 100 or 10 μM and compound 1 (example 2bis) was tested at a concentration of 500; 100; 10 or 1 μM. Cells were infected with AIEC LF82 bacteria at a multiplicity of infection (MOI) of 10 bacteria per cell for 3 h at 37° C. For the post-incubation protocol, mannosides were incubated with cells for 3 h after bacterial infection. A washing step was realized before this post-incubation to eliminate non-adherent bacteria. Monolayers were washed in phosphate-buffered saline (PBS; pH 7.2) and cells were then lysed with 1% Triton X-100 in deionized water. Samples were diluted and plated onto Luria Bertani agar plates to determine the number of colony-forming units (CFU) recovered from the lysed monolayers. Results were expressed as percentages of residual adhesion, considering adhesion level of AIEC LF82 without mannoside treatment as 100%.

FimH = FimH (Escherichia coli, UniProt P08191); type: binding
Description: Journal of the American Society for Mass Spectrometry, 2009. […] Tested compounds were added to wells following with FimH treatment.
Plates were coated with 100 μl of 10 mg/ml solution of RNAse-B in 100 mM carbonate/bicarbonate buffer pH 9.6. […] 2 h. Then washed three times with 10 mM PBS containing 0.05% Tween-20. […] Wells were washed three times with 10 mM PBS+0.05% Tween-20. 100 μl of anti-body conjugated to horseradish peroxidase (1:5000) was added in buffer and incubated for 1 h at room temperature. Then washed three times with 10 mM PBS+0.05% Tween-20. Added 100 μl of TMB and incubated in dark for 2-5 min. The reaction was stopped with 100 μl/well 1N sulfuric acid. Plate absorbance was analyzed at 450 nm using microplate reader.

bladder cell line 5637 = test: Anti-adhesives for bacterial bladder cell binding; type: cell-based; settings: ten-fold dilution series
Description: The anti-adhesive capacities of the HM-derivatized cyclodextrins 1-4 were tested in vitro on the bladder cell line 5637, in a procedure analogous as previously described (Wellens, A. et al., PLoS ONE 3: e2040 (2008)). The CD conjugates 1-4 were diluted in a ten-fold series. The minimum inhibitory concentrations (MIC) indicate the concentrations of sugars at which we see some inhibition of binding of FimH to the bladder cells, they do however not indicate complete inhibition. MIC values for the CD-conjugates 1-4 followed a similar trend as the inhibitory concentrations recorded in HIA.
The anti-adhesive capacities of the n-heptyl α-D-mannoside-derivatized cyclodextrins 1-4 were tested in vitro on the bladder cell line 5637, in a procedure analogous to as described in (Wellens, A. et al., PLoS ONE 3: e2040 (2008)). The ligands have been diluted 10-fold and this is also the resolution limit of these tests.

[2] = test system: type-1 piliated clinical E. coli isolate UTI89; test: Haemagglutination inhibition assay (HIA), guinea pig erythrocytes; type: cell-based, Escherichia coli; settings: for MIC: read-out: Minimal inhibitory concentration (MIC) on haemagglutination
Description: Haemagglutination is observed as the red blood cells being held in suspension through the formation of a space-filling cross-linked network with the fimbriated bacteria.
The UIT89 clinical isolate was grown statically 37° C. for 48 hours in LB medium and analysed for haemagglutination of guinea pig red blood cells. Both bacteria and red blood cells (RBCs) were washed 3 times in ice-cold PBS (17 mM K/NaH2PO4, 150 mM NaCl). PBS was used for all dilutions. 96-well round-bottom microtiter plates were used for the dilutions. The titer for agglutination was determined in a 2-fold dilution series in PBS of the bacteria in a volume of 25 μL. Well 1 is a negative control without bacteria but 25 μL PBS. 25 μL PBS and 50 μL 5% RBCs were added to a final 100 μL volume. Upon 1 hour at 4° C., the titer was determined as the lowest concentration of bacteria that led to haemagglutination.
A bacterial concentration of twice the determined haemagglutination titer was kept constant in the haemagglutination inhibition assays. First, a 2-fold dilution series of the inhibitory compounds was performed in 25 μL PBS. Instead, in well 1 only 25 μL PBS was added as a negative control. 25 μL of the bacterial solution and 50 μl of 5% red blood cells were added to reach a final volume of 100 μL.

Chain of FimH (P08191 22-300): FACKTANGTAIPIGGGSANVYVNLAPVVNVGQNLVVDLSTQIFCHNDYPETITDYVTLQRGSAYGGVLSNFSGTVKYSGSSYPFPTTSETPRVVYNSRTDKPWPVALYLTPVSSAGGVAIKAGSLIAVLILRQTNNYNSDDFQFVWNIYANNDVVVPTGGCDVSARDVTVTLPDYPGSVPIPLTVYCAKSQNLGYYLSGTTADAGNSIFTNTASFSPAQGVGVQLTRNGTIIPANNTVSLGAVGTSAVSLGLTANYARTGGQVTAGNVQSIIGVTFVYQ

OCC1OC(OCCCCCCCOCc2cn(CC3OC4OC5C(Cn6cc(COCCCCCCCOC7OC(CO)C(O)C(O)C7O)nn6)OC(OC6C(Cn7cc(COCCCCCCCOC8OC(CO)C(O)C(O)C8O)nn7)OC(OC7C(Cn8cc(COCCCCCCCOC9OC(CO)C(O)C(O)C9O)nn8)OC(OC8C(Cn9cc(COCCCCCCCOC%10OC(CO)C(O)C(O)C%10O)nn9)OC(OC9C(Cn%10cc(COCCCCCCCOC%11OC(CO)C(O)C(O)C%11O)nn%10)OC(OC%10C(Cn%11cc(COCCCCCCCOC%12OC(CO)C(O)C(O)C%12O)nn%11)OC(OC3C(O)C4O)C(O)C%10O)C(O)C9O)C(O)C8O)C(O)C7O)C(O)C6O)C(O)C5O)nn2)C(O)C(O)C1O (centres unmarked) [Compound 2]
Adhesion in the post-incubation protocol ([1]; post-incubation, 10 μM): significant decreased adhesion | Concentration leading to decreased adhesion levels of at least 50% [1]: 0.1 µM | Inhibition of oligomannoside binding (FIG. 17) (FimH; compounds 1, 2, 6 and HM compared): most potent inhibition | MIC, anti-adhesive potency on bladder cell line 5637 (bladder cell line 5637): 400 nM (≈ 1.45 µg/mL) | MIC ([2]; Escherichia coli, UTI89 1.2 10^9 CFU/ml): 1.56 µM (≈ 5.67 µg/mL) | MIC ([2]; Escherichia coli, UTI89 1.4 10^8 CFU/ml): 0.39 µM (≈ 1.42 µg/mL) | MIC ([2]; Escherichia coli, UTI89 7 10^7 CFU/ml): 0.24 µM (≈ 0.873 µg/mL) | Relative inhibitory potency (RIP), reference 1 ([2]; RIP (UTI89 1.2 10^9 CFU/ml)): >128 | Relative inhibitory potency (RIP), reference HM ([2]; RIP (UTI89 1.2 10^9 CFU/ml)): 8 | Relative inhibitory potency (RIP), reference 1 ([2]; RIP (UTI89 1.4 10^8 CFU/ml)): 256 | Relative inhibitory potency (RIP), reference HM ([2]; RIP (UTI89 1.4 10^8 CFU/ml)): 3 | Relative inhibitory potency (RIP), reference 1 ([2]; RIP (UTI89 7 10^7 CFU/ml)): 263 | Relative inhibitory potency (RIP), reference HM ([2]; RIP (UTI89 7 10^7 CFU/ml)): 4

CCCCCCCO[C@H]1O[C@H](CO)[C@@H](O)[C@H](O)[C@@H]1O [HM, Heptylmannoside, reference compound]
Concentration leading to decreased adhesion levels of at least 50% [1]: 10 µM | Inhibition of FimH binding compared to FimH alone (FimH; 5 nM): significantly inhibited FimH binding | Stability of activity in dissolved form (FimH; HM after 1 month storage in dissolved form vs immediately dissolved): loosing activity in dissolved form | MIC, anti-adhesive potency on bladder cell line 5637 (bladder cell line 5637): 4000 nM (≈ 1.11 µg/mL) | Relative inhibitory potency (RIP), reference 1 ([2]; RIP (UTI89 1.2 10^9 CFU/ml)): >16 | Relative inhibitory potency (RIP), reference 3 ([2]; RIP (UTI89 1.2 10^9 CFU/ml)): 16 | Relative inhibitory potency (RIP), reference 1 ([2]; RIP (UTI89 1.4 10^8 CFU/ml)): 67 | Relative inhibitory potency (RIP), reference 3 ([2]; RIP (UTI89 1.4 10^8 CFU/ml)): 33 | Relative inhibitory potency (RIP), reference 1 ([2]; RIP (UTI89 7 10^7 CFU/ml)): 64 | Relative inhibitory potency (RIP), reference 3 ([2]; RIP (UTI89 7 10^7 CFU/ml)): 32 | MIC ([2]; UTI89 1.2 10^9 CFU/ml): 12.5 µM (≈ 3.48 µg/mL) | MIC ([2]; UTI89 1.4 10^8 CFU/ml): 1.50 µM (≈ 0.418 µg/mL) | MIC ([2]; UTI89 7 10^7 CFU/ml): 0.98 µM (≈ 0.273 µg/mL)
